pIC50: −log10 of the molar value. Like-named read-outs stand apart in the source and are kept apart here.
What was measured:
[1] = test system: epidermis of hairless mice; assay: epidermis thickening in hairless mice, percutaneous administration; format: in vivo; settings: single percutaneous dose, compared with active vitamin D3
Source text: (§1) The effect of ED-71 administered percutaneously and orally was investigated using hairless mice.
(§2) Percutaneous administration of a vitamin D3 derivative in hairless mice was reported to cause hyperplasia of the epidermis (British Journal of Dermatology 1995; 132; 841-852).

[2] = test system: adult-human-derived keratinocytes; assay: suppression of proliferation of cultured human keratinocytes ([3H]thymidine uptake); format: cell-based; settings: for pIC50: [3H]thymidine uptake, cultured 3 days + 1 day, percentage of control, read-out: IC50 (mol/L) value, suppression of human keratinocyte proliferation
Procedure: The effect of suppressing the proliferation of cultured human keratinocytes by 2β-(3-hydroxypropyloxy)-1α,25-dihydroxyvitamin D3 (hereinafter referred to as “ED-71”) was investigated.
KGM-2 culture medium was added to each well of a 96-well plate (COSTAR 3595), and adult-human-derived keratinocytes (Clonetics) were seeded at a cell count of 1×10^3/well. Then, active vitamin D3 (1α,25-dihydroxyvitamin D3, produced by Solvay Pharmaceuticals) or ED-71 (produced by Chugai Seiyaku) was added to each well in a final concentration of 1×10^−10 mol/L, 1×10^−9 mol/L, 1×10^−8 mol/L, or 1×10^−7 mol/L. The cells were cultured in the KGM-2 culture medium at a cell concentration of 1×10^3/200 μl/well for 3 days at 37° C. in an atmosphere of 5% CO2 and 95% air. [^3H]thymidine was added in an amount of 7.4 kBq/well, and the cells were further cultured for 1 day. The culture medium was removed, and the cells were stripped off using 0.05% trypsin/EDTA (GIBCO BRL), and the amount of [^3H]thymidine taken up by the cells was measured with a liquid scintillation counter (1450 MICROBETA, Wallac). The cells cultured and treated in the same manner as described above, except for the addition of the active vitamin D3 or ED-71, were used as a control.
In FIG. 1, the [^3H]thymidine uptake into the cells treated with each drug is expressed as a percentage of the [^3H]thymidine uptake into the control cells.

[3] = test system: epidermis of hairless mice; assay: epidermis thickening in hairless mice, oral administration; format: in vivo; settings: administered orally for 4 days, compared with active vitamin D3
Source text: as §1, §2

Row | Compound | thickening of the epidermis [1] | human keratinocyte proliferation suppressing activity, relative value with respect to active vitamin D3 ([2]; (IC50 value of active vitamin D3)/(IC50 value of ED-71)) | pIC50 ([2]; Homo sapiens, Keratinocyte) | thickening of the epidermis [3] | pIC50 [2]
1 | C=C1/C(=C\C=C2/CCC[C@@]3(C)C2CC[C@@H]3[C@H](C)CCCC(C)(C)O)C[C@@H](O)[C@@H](OCCCO)[C@@H]1O (stereo partly drawn) [ED-71, 2β-(3-hydroxypropyloxy)-1α,25-dihydroxyvitamin D3] | thickened the epidermis in a lower dose than the dose of active vitamin D3 | ≥ 305.23 | > 10.00 | thickened the epidermis in a lower dose than the dose of active vitamin D3 | –
2 | C=C1/C(=C\C=C2/CCC[C@]3(C)[C@@H]([C@H](C)CCCC(C)(C)O)CC[C@@H]23)C[C@@H](O)C[C@@H]1O [active vitamin D3, 1α,25-dihydroxyvitamin D3, reference compound] | – | – | – | – | 7.52

Source: patent US20050256092A1, “Antipsoriatic agent” (priority 2002, published 2005)
